Assay results taken from patent publication EP4745137A1 (Gluetacs Therapeutics (Shanghai) Co., Ltd., priority 2023, dated 2025).

What was measured:
WEE1 = biological target: T1, WEE1 (Homo sapiens, UniProt P30291+Q96SW2); assay: Western-blot assay of substrate protein degradation in hPBMCs, WEE1; format: cell-based; conditions: 24 hours of compound treatment, compounds tested at 50 nM and 500 nM (concentration of the table not stated)
T1 construct: endogenous in cells; host or cells: hPBMCs (Milecell Biotechnologies)
T1 sequence (P30291 whole entry): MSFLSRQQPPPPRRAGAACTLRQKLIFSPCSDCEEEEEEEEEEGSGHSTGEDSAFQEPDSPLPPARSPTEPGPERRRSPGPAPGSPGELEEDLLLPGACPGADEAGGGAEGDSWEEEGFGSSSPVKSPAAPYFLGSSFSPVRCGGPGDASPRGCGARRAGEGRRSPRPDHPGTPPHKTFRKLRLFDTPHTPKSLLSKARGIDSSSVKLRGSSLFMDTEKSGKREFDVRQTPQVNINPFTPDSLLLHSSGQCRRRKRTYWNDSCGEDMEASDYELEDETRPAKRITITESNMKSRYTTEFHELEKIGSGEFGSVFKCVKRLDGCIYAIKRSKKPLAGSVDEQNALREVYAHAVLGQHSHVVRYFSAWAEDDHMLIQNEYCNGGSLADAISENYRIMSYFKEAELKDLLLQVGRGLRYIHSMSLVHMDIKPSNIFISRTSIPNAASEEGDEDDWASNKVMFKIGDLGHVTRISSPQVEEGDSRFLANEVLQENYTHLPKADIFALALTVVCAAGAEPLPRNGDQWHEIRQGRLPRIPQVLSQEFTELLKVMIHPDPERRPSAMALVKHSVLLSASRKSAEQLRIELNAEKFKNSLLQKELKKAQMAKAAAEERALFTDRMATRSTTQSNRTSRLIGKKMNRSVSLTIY
T1 sequence (Q96SW2 whole entry): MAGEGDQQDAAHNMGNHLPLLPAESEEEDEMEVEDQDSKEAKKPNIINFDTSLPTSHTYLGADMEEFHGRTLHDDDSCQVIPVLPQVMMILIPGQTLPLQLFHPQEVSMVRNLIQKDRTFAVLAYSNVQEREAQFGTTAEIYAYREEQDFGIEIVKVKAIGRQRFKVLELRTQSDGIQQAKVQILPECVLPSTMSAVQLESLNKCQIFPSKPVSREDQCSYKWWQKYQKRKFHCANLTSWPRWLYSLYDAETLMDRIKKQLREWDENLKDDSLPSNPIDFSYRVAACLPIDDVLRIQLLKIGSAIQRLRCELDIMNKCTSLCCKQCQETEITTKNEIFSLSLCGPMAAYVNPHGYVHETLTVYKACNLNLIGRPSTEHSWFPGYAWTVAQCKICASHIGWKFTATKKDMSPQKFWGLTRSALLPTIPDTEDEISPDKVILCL
T1 sequence (Q16531 whole entry partner): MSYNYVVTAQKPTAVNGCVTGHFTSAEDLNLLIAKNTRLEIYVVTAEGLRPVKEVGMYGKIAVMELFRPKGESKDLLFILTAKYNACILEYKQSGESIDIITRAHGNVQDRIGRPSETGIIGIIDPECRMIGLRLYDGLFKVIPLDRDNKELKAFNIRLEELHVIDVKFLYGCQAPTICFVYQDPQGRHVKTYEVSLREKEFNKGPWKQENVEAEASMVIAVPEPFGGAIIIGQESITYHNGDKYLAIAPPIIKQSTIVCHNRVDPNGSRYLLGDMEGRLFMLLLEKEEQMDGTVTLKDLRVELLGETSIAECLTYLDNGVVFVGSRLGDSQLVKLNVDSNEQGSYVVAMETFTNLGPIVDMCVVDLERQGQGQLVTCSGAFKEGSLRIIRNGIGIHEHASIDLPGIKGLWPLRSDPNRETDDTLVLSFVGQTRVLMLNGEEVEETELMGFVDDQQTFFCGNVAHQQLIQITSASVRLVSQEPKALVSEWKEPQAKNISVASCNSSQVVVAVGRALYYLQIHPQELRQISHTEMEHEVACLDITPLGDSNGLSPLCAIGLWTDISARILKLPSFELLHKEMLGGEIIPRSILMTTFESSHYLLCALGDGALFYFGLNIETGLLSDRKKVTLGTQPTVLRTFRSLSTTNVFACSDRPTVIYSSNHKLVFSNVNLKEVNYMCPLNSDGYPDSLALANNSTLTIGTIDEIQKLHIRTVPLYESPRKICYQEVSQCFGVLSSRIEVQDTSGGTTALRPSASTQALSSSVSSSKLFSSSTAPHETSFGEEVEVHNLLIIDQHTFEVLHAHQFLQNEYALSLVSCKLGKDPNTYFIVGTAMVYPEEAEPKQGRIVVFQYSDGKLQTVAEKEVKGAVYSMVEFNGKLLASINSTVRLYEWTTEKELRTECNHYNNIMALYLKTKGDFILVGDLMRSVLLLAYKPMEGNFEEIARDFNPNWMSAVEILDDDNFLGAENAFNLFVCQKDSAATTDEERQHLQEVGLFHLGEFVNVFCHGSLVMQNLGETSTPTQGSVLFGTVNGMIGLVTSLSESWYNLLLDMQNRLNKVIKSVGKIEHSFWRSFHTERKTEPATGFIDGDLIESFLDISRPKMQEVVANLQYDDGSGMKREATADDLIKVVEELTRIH

IKZF1 = biological target: T2, IKZF1 (Homo sapiens, UniProt Q13422+Q96SW2); assay: Western-blot assay of substrate protein degradation in hPBMCs, IKZF1; format: cell-based; conditions: 24 hours of compound treatment, compounds tested at 50 nM and 500 nM (concentration of the table not stated)
T2 construct: endogenous in cells; host or cells: hPBMCs (Milecell Biotechnologies)

IKZF2 = biological target: T3, IKZF2 (Homo sapiens, UniProt Q96SW2+Q9UKS7); assay: Western-blot assay of substrate protein degradation in hPBMCs, IKZF2; format: cell-based; conditions: 24 hours of compound treatment, compounds tested at 50 nM and 500 nM (concentration of the table not stated)
T3 construct: endogenous in cells; host or cells: hPBMCs (Milecell Biotechnologies)
T3 sequence (Q9UKS7 whole entry): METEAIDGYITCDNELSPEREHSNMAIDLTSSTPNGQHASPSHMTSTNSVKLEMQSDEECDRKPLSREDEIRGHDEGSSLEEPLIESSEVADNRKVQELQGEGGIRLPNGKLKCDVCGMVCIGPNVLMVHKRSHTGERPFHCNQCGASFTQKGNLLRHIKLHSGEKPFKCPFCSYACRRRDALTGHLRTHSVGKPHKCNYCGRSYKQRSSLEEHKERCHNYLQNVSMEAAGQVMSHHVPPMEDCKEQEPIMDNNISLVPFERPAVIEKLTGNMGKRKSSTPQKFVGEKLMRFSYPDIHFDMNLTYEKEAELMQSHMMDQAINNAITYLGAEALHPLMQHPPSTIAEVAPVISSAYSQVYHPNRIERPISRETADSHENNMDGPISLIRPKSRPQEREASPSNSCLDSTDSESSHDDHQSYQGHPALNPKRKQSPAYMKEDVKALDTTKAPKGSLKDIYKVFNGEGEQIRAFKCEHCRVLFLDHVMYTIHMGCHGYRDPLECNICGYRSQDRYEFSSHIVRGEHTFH
T3 sequence (Q96SW2 whole entry): as the sequence (Q96SW2 whole entry) above
T3 sequence (Q16531 whole entry partner): as the sequence (Q16531 whole entry partner) above

IKZF3 = biological target: T4, IKZF3 (Homo sapiens, UniProt Q96SW2+Q9UKT9); assay: Western-blot assay of substrate protein degradation in hPBMCs, IKZF3; format: cell-based; conditions: 24 hours of compound treatment, compounds tested at 50 nM and 500 nM (concentration of the table not stated)
T4 construct: endogenous in cells; host or cells: hPBMCs (Milecell Biotechnologies)
T4 sequence (Q9UKT9 whole entry): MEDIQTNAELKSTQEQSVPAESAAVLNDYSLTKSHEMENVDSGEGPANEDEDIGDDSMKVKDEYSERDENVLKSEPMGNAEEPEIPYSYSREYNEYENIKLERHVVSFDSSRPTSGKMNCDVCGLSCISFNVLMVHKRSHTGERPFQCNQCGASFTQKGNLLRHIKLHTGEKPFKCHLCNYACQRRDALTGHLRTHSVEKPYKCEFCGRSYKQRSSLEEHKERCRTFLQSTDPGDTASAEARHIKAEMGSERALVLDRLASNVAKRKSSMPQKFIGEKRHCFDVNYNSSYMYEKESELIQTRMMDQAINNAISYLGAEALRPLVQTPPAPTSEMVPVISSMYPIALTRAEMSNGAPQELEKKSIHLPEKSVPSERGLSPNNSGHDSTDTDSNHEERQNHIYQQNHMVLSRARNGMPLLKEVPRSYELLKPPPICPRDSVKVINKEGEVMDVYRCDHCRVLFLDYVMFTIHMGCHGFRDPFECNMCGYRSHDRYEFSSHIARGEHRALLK
T4 sequence (Q96SW2 whole entry): as the sequence (Q96SW2 whole entry) above
T4 sequence (Q16531 whole entry partner): as the sequence (Q16531 whole entry partner) above

CK1α = biological target: T5, CK1α (Homo sapiens, UniProt P48729+Q96SW2); assay: Western-blot assay of substrate protein degradation in hPBMCs, CK1α; format: cell-based; conditions: 24 hours of compound treatment, compounds tested at 50 nM and 500 nM (concentration of the table not stated)
T5 construct: endogenous in cells; host or cells: hPBMCs (Milecell Biotechnologies)
T5 sequence (P48729 whole entry): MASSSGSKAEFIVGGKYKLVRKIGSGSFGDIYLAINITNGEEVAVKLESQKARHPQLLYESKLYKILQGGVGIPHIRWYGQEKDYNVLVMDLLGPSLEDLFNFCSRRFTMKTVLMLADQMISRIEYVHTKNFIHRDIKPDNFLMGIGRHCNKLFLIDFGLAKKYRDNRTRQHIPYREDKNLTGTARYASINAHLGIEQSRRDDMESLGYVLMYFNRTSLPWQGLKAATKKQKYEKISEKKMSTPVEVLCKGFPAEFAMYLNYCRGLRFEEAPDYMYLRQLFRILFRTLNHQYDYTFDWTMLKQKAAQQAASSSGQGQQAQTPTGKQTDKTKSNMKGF
T5 sequence (Q96SW2 whole entry): as the sequence (Q96SW2 whole entry) above
T5 sequence (Q16531 whole entry partner): as the sequence (Q16531 whole entry partner) above

GSPT1 = biological target: T6, GSPT1 (Homo sapiens, UniProt P15170+Q96SW2); assay: Western-blot assay of substrate protein degradation in hPBMCs, GSPT1; format: cell-based; conditions: 24 hours of compound treatment, compounds tested at 50 nM and 500 nM (concentration of the table not stated)
T6 construct: endogenous in cells; host or cells: hPBMCs (Milecell Biotechnologies)
T6 sequence (P15170 whole entry): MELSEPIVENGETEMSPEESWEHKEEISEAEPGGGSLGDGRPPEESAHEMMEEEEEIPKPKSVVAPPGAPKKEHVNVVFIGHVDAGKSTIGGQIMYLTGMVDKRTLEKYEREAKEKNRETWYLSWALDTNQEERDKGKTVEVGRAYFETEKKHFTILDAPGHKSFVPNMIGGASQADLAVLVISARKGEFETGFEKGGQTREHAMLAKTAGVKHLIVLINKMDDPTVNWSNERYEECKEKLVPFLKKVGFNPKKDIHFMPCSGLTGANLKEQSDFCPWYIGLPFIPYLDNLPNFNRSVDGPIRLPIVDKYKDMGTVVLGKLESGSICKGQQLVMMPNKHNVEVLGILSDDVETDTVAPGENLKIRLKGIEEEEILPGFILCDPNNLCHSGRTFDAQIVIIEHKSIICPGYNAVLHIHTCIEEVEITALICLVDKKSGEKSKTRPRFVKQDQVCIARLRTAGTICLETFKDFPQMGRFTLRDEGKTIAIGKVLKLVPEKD
T6 sequence (Q96SW2 whole entry): as the sequence (Q96SW2 whole entry) above
T6 sequence (Q16531 whole entry partner): as the sequence (Q16531 whole entry partner) above

[1] = biological target: T7, human Cereblon WT GST-tagged protein (Homo sapiens, UniProt Q96SW2); assay: CRBN-binding affinity by HTRF (CEREBLON BINDING kit); conditions: HTRF inhibitory activity, CEREBLON BINDING kit; read-out: HTRF IC50
T7 construct: purchased CISBIO 64BDCRBNPEH
T7 sequence (Q96SW2 whole entry): as the sequence (Q96SW2 whole entry) above

Row | SMILES | Weel substrate protein remaining % (WEE1) | IKZF 1 substrate protein remaining % (IKZF1) | IKZF2 substrate protein remaining % (IKZF2) | IKZF3 substrate protein remaining % (IKZF3) | CK1a substrate protein remaining % (CK1α) | GSPT1 substrate protein remaining % (GSPT1) | IC50 [1]
1 | O=C1CCC(N2Cc3cc(CN4CCC(c5ncnc6sccc56)CC4)ccc3C2=O)C(=O)N1 (stereo not shown) [GT-04702, 3-(1-oxo-5-((4-(thieno[2,3-d]pyrimidin-4-yl)piperidin-1-yl)methyl)isoindolin-2-yl)piperidine-2,6-dione] | B (80%< substrate protein remaining %≤ 100%) | A (0% ≤ substrate protein remaining % ≤ 80%) | A (0% ≤ substrate protein remaining % ≤ 80%) | A (0% ≤ substrate protein remaining % ≤ 80%) | B (80%< substrate protein remaining %≤ 100%) | A (0% ≤ substrate protein remaining % ≤ 80%) | 500 to 1000 nM
2 | CC(C)c1cc2c(N3CCN(Cc4ccc5c(c4)CN(C4CCC(=O)NC4=O)C5=O)CC3)ncnc2s1 (stereo not shown) [GT-04705, 3-(5-((4-(6-isopropylthieno[2,3-d]pyrimidin-4-yl)piperazin-1-yl)methyl)-1-oxoisoindolin-2-yl)piperidine-2,6-dione] | B (80%< substrate protein remaining %≤ 100%) | A (0% ≤ substrate protein remaining % ≤ 80%) | A (0% ≤ substrate protein remaining % ≤ 80%) | A (0% ≤ substrate protein remaining % ≤ 80%) | A (0% ≤ substrate protein remaining % ≤ 80%) | A (0% ≤ substrate protein remaining % ≤ 80%) | 500 to 1000 nM
3 | Cc1sc2ncnc(N3CCN(Cc4ccc5c(c4)CN(C4CCC(=O)NC4=O)C5=O)CC3)c2c1C (stereo not shown) [GT-04706, 3-(5-((4-(5,6-dimethylthieno[2,3-d]pyrimidin-4-yl)piperazin-1-yl)methyl)-1-oxoisoindolin-2-yl)piperidine-2,6-dione] | B (80%< substrate protein remaining %≤ 100%) | A (0% ≤ substrate protein remaining % ≤ 80%) | A (0% ≤ substrate protein remaining % ≤ 80%) | A (0% ≤ substrate protein remaining % ≤ 80%) | A (0% ≤ substrate protein remaining % ≤ 80%) | A (0% ≤ substrate protein remaining % ≤ 80%) | 500 to 1000 nM
4 | Cc1sc2ncnc(N3CCCN(Cc4ccc5c(c4)CN(C4CCC(=O)NC4=O)C5=O)CC3)c2c1C (stereo not shown) [GT-04707, 3-(5-((4-(5,6-dimethylthieno[2,3-d]pyrimidin-4-yl)-1,4-diazepan-1-yl)methyl)-1-oxoisoindolin-2-yl)piperidine-2,6-dione] | B (80%< substrate protein remaining %≤ 100%) | A (0% ≤ substrate protein remaining % ≤ 80%) | A (0% ≤ substrate protein remaining % ≤ 80%) | A (0% ≤ substrate protein remaining % ≤ 80%) | A (0% ≤ substrate protein remaining % ≤ 80%) | A (0% ≤ substrate protein remaining % ≤ 80%) | < 500 nM
